Test results: patent US11185523B2, “Use of bipolar trans carotenoids with chemotherapy and radiotherapy for treatment of cancer” (DIFFUSION PHARMACEUTICALS LLC, priority 2016, dated 2021)
Like-named read-outs stand apart in the source and are kept apart here.

What was measured:
[1] = test system: metastatic pancreatic cancer; conditions: metastatic disease, erlotinib with gemcitabine vs gemcitabine alone, cited from earlier work; for one-year survival rate: P=0.023; for median overall survival: P=0.038
[2] = test system: DMBA breast tumors; assay: DMBA breast tumor model, TSC before chemotherapy; format: in vivo; conditions: TSC and control groups
Procedure: Breast tumors were induced through injection of DMBA (dimethylbenzantracene) under the mammary tissue of female rats. The tumors usually grow in most rats and reach measurable conditions after 10 days.
The following studies used a method in which a 3-mL syringe is filled first with 1 ml of DMBA dissolved in sunflower seed oil (20 mg DMBA per mL of solution). Following that, 2 mL's of air are pulled into the syringe. The needle of the syringe is then inserted under the mammary tissue near a hind leg and the air in the syringe is carefully injected. The injection of the air forms a “pocket”, and then the 1 mL of DMBA solution is injected into that pocket.
After the tumors have grown up (about 10 days), their volumes are estimated by measuring the diameter (d) and the length (L) of the football-shaped tumors formed. This is done using calipers after feeling the tumor with one's fingers. To estimate the volume of the tumor, you multiply the diameter squared times the length and divide by 2: Tumor volume (in mm3)={(d in mm)^22}×(L in mm)
TSC or saline (controls) was injected in the tail vein of the rats at a volume of 0.1 mL and a dose of 0.25 mg/kg TSC about 1-2 hours before the chemotherapeutic agent was injected intraperitoneally (IP) in the rats.
In order to understand which dosages are efficacious when used with chemotherapy, a rat model of breast tumors was used. The model involves injecting the chemical dimethylbenzanthracene (DMBA) under the mammary gland of a female Sprague-Dawley rat. After a few days, tumors begin to grow and can be measured by feeling the football-shaped tumor under the skin and measured using calipers.

[3] = test system: pancreatic cancer; conditions: cited from earlier work; for overall survival: Folfirinox regimen vs gemcitabine
[4] = test system: metastatic pancreatic cancer; conditions: treatment naive patients with metastatic cancer; nab-paclitaxel plus gemcitabine vs gemcitabine; cited from earlier work
[5] = test system: newly diagnosed GBM; conditions: cited from earlier work
[6] = test system: recurrent GBM; conditions: cited from earlier work

C#Cc1cccc(Nc2ncnc3cc(OCCOC)c(OCCOC)cc23)c1 [erlotinib]
one-year survival rate [1]: 23%
median overall survival [1]: 6.24 months

Nc1ccn([C@@H]2O[C@H](CO)[C@@H](O)C2(F)F)c(=O)n1 [gemcitabine, reference compound]
mortality ([2]; gemcitabine 5 mg/kg IP on days 0, 3): Most rats in both groups were dead on Day 7
mortality ([2]; gemcitabine 10 mg/kg IP on days 0, 3): Most rats in both groups were dead on Day 6
overall survival [3]: 6.8 months
one-year survival rate [1]: 17%
median overall survival [1]: 5.91 months
overall survival [4]: 6.7 months

Folfirinox
overall survival [3]: 11.1 months
adverse events ([3]; Folfirinox treatment): accompanied by serious adverse events

bevacizumab
symptom burden, quality of life, neurocognitive function ([5]; human, in vivo): increased symptom burden, a worse quality of life, and a decline in neurocognitive function
progression free survival ([5]; radiation, TMZ and bevacizumab vs only radiation and TMZ, both studies): increase in progression free survival
overall survival ([5]; radiation, TMZ and bevacizumab vs only radiation and TMZ, two clinical trials): no difference in overall survival
overall six-month survival ([6]; Phase 2 study, recurrent GBM): 54%
six-month progression-free survival ([6]; Phase 2 study, recurrent GBM, historical 9-15%): 25%
six-month progression-free survival ([6]; another Phase 2 study, lower dose but higher frequency): 42.6%
